Data: patent US20050031540A1, “Visco dye” (priority 2001, published 2005)

Columns and labels:
[1] = test system: anterior capsule of the crystalline lens; test: Vital dye staining of the anterior lens capsule to visualise the CCC; settings: absence of a red fundus reflex
Excerpt: It is possible to use a number of vital dyes already known today, but also such which may become available in the future as the visualising agent. […] These include azophlozin, basic blue, Bismarck brown, basis red, bengal red, brilliant cresyl blue, eosin, fluorescein, gentian violet, indocyanine green, Janus green, methylene green, methylene blue, neutral red and others.

[2] = test system: corneal endothelial cells; settings: earlier use to stain corneas prior to corneal transplants; cited from earlier work

Compound: CN(C)c1ccc(C(=C2C=CC(=[N+](C)C)C=C2)c2ccc(N(C)C)cc2)cc1 [gentian violet]
- staining of the anterior capsule sufficient to visualise the CCC ([1]; dye 2%): stained the anterior capsule sufficiently to visualise the CCC

Compound: CN(C)c1ccc2nc3ccc(=[N+](C)C)cc-3sc2c1 [methylene blue]
- staining of the anterior capsule sufficient to visualise the CCC ([1]; dye 5%): stained the anterior capsule sufficiently to visualise the CCC

Compound: Cc1cc(-c2ccc(/N=N/c3c(S(=O)(=O)O)cc4cc(S(=O)(=O)O)cc(N)c4c3O)c(C)c2)ccc1/N=N/c1c(S(=O)(=O)O)cc2cc(S(=O)(=O)O)cc(N)c2c1O [trypan blue]
- tolerance of corneal endothelium to vital staining, endothelial cell counts [2]: without a reduction in endothelial cell counts
- staining of the anterior capsule sufficient to visualise the CCC ([1]; dye 0.1%): stained the anterior capsule sufficiently to visualise the CCC

Compound: brilliant cresyl blue
- staining of the anterior capsule sufficient to visualise the CCC ([1]; dye 1%): stained the anterior capsule sufficiently to visualise the CCC
